Source: patent US9266870B2 (TAISHO PHARMACEUTICAL CO., LTD., priority 2012, dated 2016)
Like-named read-outs stand apart in the source and are kept apart here.

Tests used:
[1] = biological target: human orexin-1 receptor (hOX1R) (Homo sapiens (Human), UniProt O43613); assay: Measurement of orexin antagonistic activity (intracellular Ca2+ fluorescence, FDSS), hOX1R; assay type: cell-based; conditions: ligand peptide (modified human orexin-A) 300 pM, maximum fluorescence intensity
Procedure: (§1) Chinese hamster ovary (CHO) cells forcibly expressing the hOX1R and hOX2R were seeded into a 96 well Black clear bottom plate (Nunc) at 20,000 cells per well, which were cultured in Ham's F-12 medium containing 0.1 mM MEM non-essential amino acids, 0.5 mg/ml G418, 10% fetal bovine serum (all by Invitrogen) for 16 hours under the conditions of 37° C., 5% CO2. After removing the medium, 100 μL of 0.5 μM Fluo-4AM ester (Dojin) in an assay buffer (25 mM HEPES (Dojin), Hank's balanced salt solution (Invitrogen), 0.1% bovine serum albumin, 2.5 mM probenecid, 200 μg/ml Amaranth (all by Sigma-Aldrich), pH 7.4) was added and the cells were incubated for 60 minutes at 37° C., 5% CO2. After removing the assay buffer containing fluo-3AM ester, the test compound was dissolved in dimethyl sulfoxide to be 10 mM and diluted with the assay buffer, 150 μL of which was added and incubated for 30 minutes.
(§2) The reaction was measured for the fluorescence intensity of each well every second for 3 minutes using Functional Drug Screening System (FDSS; Hamamatsu Photonics K.K.), and the antagonistic activity was determined using the maximum fluorescence intensity as the indicator of intracellular Ca2+ concentration.

[2] = biological target: human orexin-2 receptor (hOX2R) (Homo sapiens (Human), UniProt O43614); assay: Measurement of orexin antagonistic activity (intracellular Ca2+ fluorescence, FDSS), hOX2R; assay type: cell-based
Procedure: as §1, with “The antagonistic activities of the test compounds on human orexin-1 receptor (hOX1R) and orexin-2 receptor (hOX2R) were measured by modifying from the method described in literature (Toshikatsu Okumura et al., Biochemical and Biophysical Research Communications 280, 976-981, 2001). Chinese” for “Chinese”
as §2

[3] = CHO cells forcibly expressing hOX1R, read-out: IC50 Value OX1
[4] = CHO cells forcibly expressing hOX2R, ligand peptide (modified human orexin-A) 3 nM, maximum fluorescence intensity, read-out: IC50 Value OX2

Sequence of human orexin-2 receptor (hOX2R) (O43614 whole entry): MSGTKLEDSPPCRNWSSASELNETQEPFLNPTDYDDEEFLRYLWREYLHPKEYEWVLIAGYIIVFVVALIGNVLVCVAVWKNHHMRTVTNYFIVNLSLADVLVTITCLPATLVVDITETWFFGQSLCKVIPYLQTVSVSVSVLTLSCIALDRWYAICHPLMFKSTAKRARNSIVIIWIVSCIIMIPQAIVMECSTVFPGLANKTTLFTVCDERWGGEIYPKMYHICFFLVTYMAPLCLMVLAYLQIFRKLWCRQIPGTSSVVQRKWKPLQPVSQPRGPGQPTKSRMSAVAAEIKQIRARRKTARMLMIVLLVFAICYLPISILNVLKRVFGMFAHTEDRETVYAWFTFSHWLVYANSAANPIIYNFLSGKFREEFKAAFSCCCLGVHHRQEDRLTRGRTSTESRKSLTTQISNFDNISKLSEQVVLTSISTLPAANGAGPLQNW
Sequence of human orexin-1 receptor (hOX1R) (O43613 whole entry): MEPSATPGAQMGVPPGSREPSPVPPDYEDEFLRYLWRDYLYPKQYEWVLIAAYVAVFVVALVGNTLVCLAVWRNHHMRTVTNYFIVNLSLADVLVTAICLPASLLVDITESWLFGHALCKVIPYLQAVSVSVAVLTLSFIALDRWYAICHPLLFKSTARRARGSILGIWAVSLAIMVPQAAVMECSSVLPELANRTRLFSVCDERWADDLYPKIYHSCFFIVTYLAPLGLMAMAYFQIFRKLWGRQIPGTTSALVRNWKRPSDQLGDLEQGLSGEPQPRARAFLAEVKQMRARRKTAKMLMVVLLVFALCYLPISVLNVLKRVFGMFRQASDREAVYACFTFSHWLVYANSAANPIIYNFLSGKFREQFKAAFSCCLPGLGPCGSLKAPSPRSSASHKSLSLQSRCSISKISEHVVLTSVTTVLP

SMILES | IC50 [1, 3] [µM] | IC50 [2, 4] [µM] | IC50 ([1]; IC50 Value OX1, CHO cells forcibly expressing hOX1R) [µM] | IC50 [2] [µM]
Cc1ccc(-c2ncccn2)c(C(=O)N2CCOC2Cn2ccc(-c3ccc(F)cc3)n2)c1 (racemic) [Example 20, (±)-(2-[[3-(4-fluorophenyl)-1H-pyrazol-1-yl]methyl]-1,3-oxazolidin-3-yl)[5-methyl-2-(pyrimidin-2-yl)phenyl]methanone] | 0.0123 | 0.101 | – | –
O=C(c1cc(F)ccc1-c1ncccn1)N1CCOC1Cn1ccc(-c2ccc(F)cn2)n1 (racemic) [Example 16, (±)-(2-[[3-(5-fluoropyridin-2-yl)-1H-pyrazol-1-yl]methyl]-1,3-oxazolidin-3-yl) [5-fluoro-2-(pyrimidin-2-yl)phenyl]methanone] | 0.0289 | 0.0717 | – | –
Cc1ccc(-n2nccn2)c(C(=O)N2CCOC2Cn2cc(-c3ccc(F)cc3)cn2)n1 (racemic) [Example 23, (±)-(2-[[4-(4-fluorophenyl)-1H-pyrazol-1-yl]methyl]-1,3-oxazolidin-3-yl)[6-methyl-3-(2H-1,2,3-triazol-2-yl)pyridin-2-yl]methanone] | 0.0963 | 0.112 | – | –
O=C(c1cc(F)ccc1-c1ncccn1)N1CCOC1Cn1ccc(-c2ccc(F)cc2)n1 (racemic) [Example 21] | 0.0302 | 0.234 | – | –
Cc1ccc(-c2ncccn2)c(C(=O)N2CCCOC2Cn2ccc(-c3ccc(F)cc3)n2)n1 (single isomer, unassigned; (-)) [Example 28, (−)-(2-[[3-(4-fluorophenyl)-1H-pyrazol-1-yl]methyl]-1,3-oxazinan-3-yl)[6-methyl-3-(pyrimidin-2-yl)pyridin-2-yl] methanone] | 0.0024 | 0.004 | – | –
Cc1ccc(-n2nccn2)c(C(=O)N2CCCOC2Cn2ccc(-c3ccc(F)cn3)n2)c1 (single isomer, unassigned; (-)) [Example 3, (−)-(2-[[3-(5-fluoropyridin-2-yl)-1H-pyrazol-1-yl]-methyl]-1,3-oxazinan-3-yl)[5-methyl-2-(2H-1,2,3-triazol-2-yl)phenyl] methanone] | – | – | 0.0007 | 0.0012
Cc1ccc(-n2nccn2)c(C(=O)N2[C@H](C)CO[C@H]2Cn2cc(-c3ccc(F)cn3)cn2)c1 [Example 8, [(2S,4R)-2-[[4-(5-fluoropyridin-2-yl)-1H-pyrazol-1-yl]-methyl]-4-methyl-1,3-oxazolidin-3-yl] [5-methyl-2-(2H-1,2,3-triazol-2-yl)phenyl] methanone] | 0.0609 | 0.46 | – | –
Cc1ccc(-n2nccn2)c(C(=O)N2[C@H](Cn3cc(-c4ccc(F)cn4)cn3)OC[C@@H]2C)c1 [Example 10, (−)-[(2S,4S)-2-[[4-(5-fluoropyridin-2-yl)-1H-pyrazol-1-yl]methyl]-4-methyl-1,3-oxazolidin-3-yl] [5-methyl-2-(2H-1,2,3-triazol-2-yl)phenyl] methanone] | 0.201 | 0.273 | – | –
O=C(c1ccccc1-n1nccn1)N1CCOC1Cn1ccc(-c2ccc(F)cc2)n1 (racemic) [Example 18, (±)-(2-[[3-(4-fluorophenyl)-1H-pyrazol-1-yl]methyl]-1,3-oxazolidin-3-yl)[2-(2H-1,2,3-triazol-2-yl)phenyl] methanone] | 0.0264 | 0.192 | – | –
Cc1ccc(-n2nccn2)c(C(=O)N2CCCOC2Cn2ccc(-c3ccc(F)cc3)n2)n1 (single isomer, unassigned; (-)) [Example 27, (−)-(2-[[3-(4-fluorophenyl)-1H-pyrazol-1-yl]methyl]-1,3-oxazinan-3-yl)[6-methyl-3-(2H-1,2,3-triazol-2-yl)pyridin-2-yl]methanone] | 0.0009 | 0.003 | – | –
Cc1ccc(-n2nccn2)c(C(=O)N2CCOC2Cn2ccc(-c3ccc(F)cn3)n2)n1 (racemic) [Example 13, (±)-(2-[[3-(5-fluoropyridin-2-yl)-1H-pyrazol-1-yl]methyl]-1,3-oxazolidin-3-yl) [6-methyl-3-(2H-l,2,3-triazol-2-yl)pyridin-2-yl] methanone] | 0.121 | 0.251 | – | –
Cc1ccc(-n2nccn2)c(C(=O)N2CCOC2Cn2cc(-c3ccc(F)cn3)cn2)c1 (single isomer, unassigned; (-)) [Example 2, (−)-(2-[[4-(5-fluoropyridin-2-yl)-1H-pyrazol-1-yl]-methyl]-1,3-oxazolidin-3-yl)[5-methyl-2-(2H-1,2,3-triazol-2-yl)phenyl] methanone] | 0.0143 | 0.0186 | – | –
O=C(c1cc(F)ccc1-n1nccn1)N1CCCOC1Cn1ccc(-c2ccc(F)cn2)n1 (single isomer, unassigned; (-)) [Example 29, (−)-(2-[[3-(5-fluoropyridin-2-yl)-1H-pyrazol-1-yl]methyl]-1,3-oxazinan-3-yl)[5-fluoro-2-(2H-1,2,3-triazol-2-yl)phenyl]methanone] | 0.0032 | 0.0012 | – | –

Continued, in another order:

IC50 [1, 3] [µM] | IC50 [2, 4] [µM] | SMILES | IC50 ([1]; IC50 Value OX1, CHO cells forcibly expressing hOX1R) [µM] | IC50 [2] [µM]
0.001 | 0.001 | Cc1ccc(-c2ncccn2)c(C(=O)N2CCCOC2Cn2ccc(-c3ccc(F)cc3)n2)c1 (single isomer, unassigned; (-)) [Example 41, (−)-[2-{[3-(4-Fluorophenyl)-1H-pyrazol-1-yl]methyl}-1,3-oxazinan-3-yl][5-methyl-2-(pyrimidin-2-yl)phenyl]methanone] | – | –
0.0021 | 0.0073 | Cc1ccc(-n2nccn2)c(C(=O)N2CCCOC2Cc2noc(-c3ccc(F)cc3)n2)n1 (single isomer, unassigned; (-)) [Example 38, (−)-[2-[[5-(4-fluorophenyl)-1,2,4-oxadiazol-3-yl]methyl]-1,3-oxazinan-3-yl] [6-methyl-3-(2H-1,2,3-triazol-2-yl)pyridin-2-yl] methanone] | – | –
0.0038 | 0.0069 | Cc1ccc(-n2nccn2)c(C(=O)N2CCCOC2Cc2noc(-c3ccc(F)cn3)n2)c1 (single isomer, unassigned; (-)) [Example 36, (−)-[2-[[5-(5-fluoropyridin-2-yl)-1,2,4-oxadiazol-3-yl]methyl]-1,3-oxazinan-3-yl] [5-methyl-2-(2H-1,2,3-triazol-2-yl)phenyl] methanone] | – | –
0.0172 | 0.0204 | Cc1ccc(-c2ncccn2)c(C(=O)N2CCCOC2Cc2cnn(-c3ccc(F)cn3)c2)c1 (racemic) [Example 42, (±)-[2-[[1-(5-fluoropyridin-2-yl)-1H-pyrazol-4-yl]methyl]-1,3-oxazinan-3-yl] [5-methyl-2-(pyrimidin-2-yl)phenyl]methanone] | – | –
3.59 | 4.54 | Cc1ccc(-c2ncccn2)c(C(=O)N2CCCOC2Cc2noc(-c3ccc(F)cn3)n2)c1 (racemic) [Example 33, (±)-(2-[[5-(5-fluoropyridin-2-yl)-1,2,4-oxadiazol-3-yl]methyl]-1,3-oxazinan-3-yl) [5-methyl-2-(pyrimidin-2-yl)phenyl]methanone] | – | –
0.0812 | 0.0466 | Cc1ccc(-n2nccn2)c(C(=O)N2[C@H](Cn3cc(-c4ccc(F)cn4)cn3)OCC[C@@H]2C)c1 [Example 39, [(2S,4S)-2-{[4-(5-Fluoropyridin-2-yl)-1H-pyrazol-1-yl]methyl}-4-methyl-1,3-oxazinan-3-yl}[5-methyl-2-(2H-1,2,3-triazol-2-yl)phenyl]methanone] | – | –
0.0027 | 0.0121 | Cc1ccc(-n2nccn2)c(C(=O)N2CCOC2Cc2ccn(-c3ccc(F)cn3)n2)c1 (single isomer, unassigned; (-)) [Example 45, (−)-[2-{[1-(5-Fluoropyridin-2-yl)-1H-pyrazol-3-yl]methyl}-1,3-oxazolidin-3-yl][5-methyl-2-(2H-1,2,3-triazol-2-yl)phenyl]methanone] | – | –
0.0022 | 0.0062 | O=C(c1cc(F)ccc1-c1ncccn1)N1CCCOC1Cn1ccc(-c2ccc(F)cn2)n1 (single isomer, unassigned; (-)) [Example 34, (−)-[2-[[3-(5-fluoropyridin-2-yl)-1H-pyrazol-1-yl]methyl]-l,3-oxazinan-3-yl] [5-fluoro-2-(pyrimidin-2-yl)phenyl]methanone] | – | –
0.0026 | 0.003 | Cc1ccc(-c2ncccn2)c(C(=O)N2CCCOC2Cn2ccc(-c3ccc(F)cn3)n2)c1 (single isomer, unassigned; (-)) [Example 30] | – | –
